Here are results for four molecules from patent US12252524B2, “GIP/GLP1 co-agonist compounds” (Eli Lilly and Company, priority 2018, dated 2025).

Assay [1] deals with T1, gastric inhibitory peptide receptor (GIPR) (Homo sapiens, UniProt P48546).
T1 sequence (P48546 22-466): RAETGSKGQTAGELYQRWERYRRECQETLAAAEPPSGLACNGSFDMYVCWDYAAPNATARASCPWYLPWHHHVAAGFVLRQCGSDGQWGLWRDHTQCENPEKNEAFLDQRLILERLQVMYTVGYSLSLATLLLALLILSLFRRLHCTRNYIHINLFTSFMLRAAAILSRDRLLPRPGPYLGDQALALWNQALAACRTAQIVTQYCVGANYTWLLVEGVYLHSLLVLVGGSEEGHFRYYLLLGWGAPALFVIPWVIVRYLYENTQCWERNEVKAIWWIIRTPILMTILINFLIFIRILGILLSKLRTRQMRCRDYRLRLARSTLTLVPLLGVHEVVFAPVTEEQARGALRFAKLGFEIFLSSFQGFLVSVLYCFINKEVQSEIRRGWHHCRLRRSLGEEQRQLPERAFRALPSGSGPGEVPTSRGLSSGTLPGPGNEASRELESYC
In words: cAMP pharmacological functional assay in presence of casein, hGIPR. The class given is cell-based. The following applies: HEK293 cells expressing hGIPR, 0.1% Casein, geometric mean; read-out: hGIPR cAMP Rel EC50 nM (SEM, n).

Assay [2] deals with T2, human GLP-1R (Homo sapiens, UniProt P43220). In words: GLP-1R CHO cell β-arrestin recruitment assay. In kind it is cell-based. The following applies: for EC50: CHO-K1 cells; for hGLP1R B-Arrestin2 % Top: normalized to GLP-1 maximum control. Further details: host or cells: CHO-K1 PathHunter cells, assay-ready frozen. In short, it runs like this:
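Peptide-induced β-arrestin-2 recruitment measured by enzyme-fragment complementation luminescence after 90 min at 37 °C plus 60 min detection at RT.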

Assay [3] concerns the target T2, human GLP-1R. The experiment in a line: [125I]-GLP-1 binding (SPA), human GLP-1 receptor. Details: expressed in transfected cells; crude membranes. The following applies: read-out: hGLP1R Ki, (nM) (SEM, n). An outline of the steps:
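Frozen cell pellets are lysed on ice in hypotonic Tris buffer, pH 7.5, homogenized, and centrifuged to a membrane pellet resuspended at about 1 to 3 mg/mL. Binding is then measured in HEPES-based buffer at pH 7.4, and curves are fitted to give IC50 and Ki.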

The target of another assay is T3, human Gcg receptor (Homo sapiens, UniProt P47871).
T3 construct: expressed in transfected cells; crude membranes
T3 sequence (P47871 26-477): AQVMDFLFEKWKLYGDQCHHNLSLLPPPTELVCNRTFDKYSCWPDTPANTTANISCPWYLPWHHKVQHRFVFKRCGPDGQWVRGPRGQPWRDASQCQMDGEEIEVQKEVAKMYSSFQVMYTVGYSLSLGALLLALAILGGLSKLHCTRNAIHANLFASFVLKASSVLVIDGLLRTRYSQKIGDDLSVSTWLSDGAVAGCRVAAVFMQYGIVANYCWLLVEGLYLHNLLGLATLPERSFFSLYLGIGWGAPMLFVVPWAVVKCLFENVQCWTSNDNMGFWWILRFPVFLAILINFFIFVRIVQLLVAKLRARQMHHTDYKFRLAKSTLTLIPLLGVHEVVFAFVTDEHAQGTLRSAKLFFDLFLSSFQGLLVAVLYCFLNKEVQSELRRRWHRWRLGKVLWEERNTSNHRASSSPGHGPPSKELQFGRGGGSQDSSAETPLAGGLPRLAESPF
In words: [125I]-Glucagon binding (SPA), human Gcg receptor. The following applies: read-out: hGLcgR Ki, nM (SEM, n). In short, it runs like this: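 Cell pellets were lysed in hypotonic Tris buffer, pH 7.5, homogenized, and spun at low then high speed to give crude membranes. Ki was derived from the fitted IC50.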

A further assay deals with T4, human GIP receptor (Homo sapiens, UniProt P48546).
T4 construct: expressed in transfected cells; crude membranes
T4 sequence (P48546 22-466): T1 sequence (P48546 22-466)
In words: [125I]-GIP binding (SPA), human GIP receptor. The following applies: read-out: hGIPR Ki, nM (SEM, n).

The target of assay [4] is human GLP-1 receptor (GLP-1R) (Homo sapiens, UniProt P43220). In words: cAMP pharmacological functional assay in presence of casein, hGLP-1R. The class given is cell-based. The following applies: HEK293 cells expressing hGLP-1R, 0.1% Casein, geometric mean; read-out: hGLP1R cAMP Rel EC50 nM (SEM, n).
Chain of human GLP-1 receptor (GLP-1R) (P43220 24-463): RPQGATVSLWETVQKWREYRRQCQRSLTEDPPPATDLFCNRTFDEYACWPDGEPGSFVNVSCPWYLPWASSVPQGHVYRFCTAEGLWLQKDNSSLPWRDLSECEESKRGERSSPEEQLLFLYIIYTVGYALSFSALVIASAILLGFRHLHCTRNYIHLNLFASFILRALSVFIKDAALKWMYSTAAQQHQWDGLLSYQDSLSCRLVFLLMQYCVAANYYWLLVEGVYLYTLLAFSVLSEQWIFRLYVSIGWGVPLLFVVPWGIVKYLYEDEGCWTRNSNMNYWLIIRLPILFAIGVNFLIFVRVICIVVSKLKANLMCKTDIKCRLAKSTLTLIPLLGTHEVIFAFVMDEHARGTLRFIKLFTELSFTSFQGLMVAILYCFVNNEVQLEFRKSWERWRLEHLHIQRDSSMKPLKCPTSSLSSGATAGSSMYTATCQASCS
The target in assay [5] is T2, human GLP-1R. The experiment in a line: GLP-1R HEK293 cell membrane [35S]GTPγS binding assay. The class given is biochemical. Details: expressed in transfected cells; host or cells: HEK293 cells expressing human GLP-1R; membranes. The following applies: HEK293 cell membranes expressing human GLP-1R, [35S]GTPγS binding; read-out: hGLP1R GTPgS Rel EC50 nM (SEM, n). An outline of the steps:
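Agonist-driven Gαs activation read as [35S]GTPγS ([…]) binding to receptor-expressing HEK293 membranes, 30 min at room temperature, pH 7.4. Detection by anti-Gαs immunocapture on scintillation beads; EC50 derived from four-parameter logistic concentration-response fit.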
(GTPγS is a poorly hydrolysed GTP analogue; its binding reports G protein activation.)

The mark [6] stands for this setting: PathHunter β-arrestin-2 recruitment, 0.1% casein, read-out: hGLP1R B-Arrestin2 Rel EC50 uM (SEM, n).

The term EC50 denotes the midpoint of the concentration-response curve. The Ki is the equilibrium dissociation constant of an inhibitor or competing ligand from its target.

Numbered stars: 1 amine (or outer) side, 2 acyl side, 3 side chain; on linkers, the order of the positions; unused ones are H or OH. Square brackets hold non-standard residues; d marks the D form. Side chains are listed from the residue outwards. Peptide text beside a SMILES is read from it. * marks the point of attachment. C20 diacid = O=C(O)CCCCCCCCCCCCCCCCCCC(=O)*; C18 diacid = O=C(O)CCCCCCCCCCCCCCCCC(=O)*; γGlu = O=C(O)[C@H](CCC(=O)[*:2])N[*:1]; αMeL = CC(C)C[C@](C)(N)C(=O)O; Orn = NCCC[C@H](N)C(=O)O; AEEA = NCCOCCOCC(=O)O; Aib = CC(C)(N)C(=O)O

T2 sequence (P43220 24-463): as above

For the molecule `CC[C@H](C)[C@H](NC(=O)[C@H](CC(C)C)NC(=O)[C@H](Cc1ccc(O)cc1)NC(=O)[C@H](CCC(=O)O)NC(=O)[C@@H](NC(=O)[C@H](Cc1ccccc1)NC(=O)[C@H](C)NC(=O)C(C)(C)NC(=O)[C@H](CCC(N)=O)NC(=O)[C@H](C)NC(=O)[C@H](CCCCNC(=O)COCCOCCNC(=O)COCCOCCNC(=O)CC[C@H](NC(=O)CCCCCCCCCCCCCCCCCCC(=O)O)C(=O)O)NC(=O)[C@H](CCCN)NC(=O)[C@H](CC(=O)O)NC(=O)[C@H](CC(C)C)NC(=O)[C@](C)(CC(C)C)NC(=O)[C@@H](NC(=O)[C@H](CO)NC(=O)[C@H](Cc1ccc(O)cc1)NC(=O)[C@H](CC(=O)O)NC(=O)[C@H](CO)NC(=O)[C@@H](NC(=O)[C@H](Cc1ccccc1)NC(=O)[C@@H](NC(=O)CNC(=O)[C@H](CCC(=O)O)NC(=O)C(C)(C)NC(=O)[C@H](N)Cc1ccc(O)cc1)[C@@H](C)O)[C@@H](C)O)[C@@H](C)CC)[C@@H](C)CC)C(=O)N[C@@H](C)C(=O)NCC(=O)NCC(=O)N1CCC[C@H]1C(=O)N[C@@H](CO)C(=O)N[C@@H](CO)C(=O)NCC(=O)N[C@@H](C)C(=O)N1CCC[C@H]1C(=O)N1CCC[C@H]1C(=O)N1CCC[C@H]1C(=O)N[C@@H](CO)C(N)=O` [Example 346] (H-[dY][Aib]EGTFTSDYSI[αMeL]LD[Orn]K([AEEA-AEEA-γGlu-C20 diacid])AQ[Aib]AFIEYLIAGGPSSGAPPPS-NH2), the EC50 in assay [1] was 0.144 nM; on human GLP-1R [2] (setting [6]), 0.00325 µM; in assay [4] it was 0.128 nM; at human GLP-1R [5] it was 0.737 nM. For the same molecule, the “hGLP1R B-Arrestin2 % Top” value at human GLP-1R [2] came to 19.3%. For the same molecule, the Ki worked out at 1.67 nM on human GLP-1R [3], 310 nM at human Gcg receptor and 0.0559 nM on human GIP receptor.

`CC[C@H](C)[C@H](NC(=O)[C@H](CC(C)C)NC(=O)[C@H](Cc1ccc(O)cc1)NC(=O)[C@H](CCC(=O)O)NC(=O)[C@@H](NC(=O)[C@H](Cc1ccccc1)NC(=O)[C@H](C)NC(=O)C(C)(C)NC(=O)[C@H](CCC(N)=O)NC(=O)[C@H](C)NC(=O)[C@H](CCCCNC(=O)COCCOCCNC(=O)COCCOCCNC(=O)CC[C@H](NC(=O)CCCCCCCCCCCCCCCCC(=O)O)C(=O)O)NC(=O)[C@H](CCCCN)NC(=O)[C@H](CC(=O)O)NC(=O)[C@H](CC(C)C)NC(=O)[C@H](CC(C)C)NC(=O)[C@@H](NC(=O)[C@H](CO)NC(=O)[C@H](Cc1ccc(O)cc1)NC(=O)[C@H](CC(=O)O)NC(=O)[C@H](CO)NC(=O)[C@@H](NC(=O)[C@H](Cc1ccccc1)NC(=O)[C@@H](NC(=O)CNC(=O)[C@H](CCC(=O)O)NC(=O)C(C)(C)NC(=O)[C@@H](N)Cc1ccc(O)cc1)[C@@H](C)O)[C@@H](C)O)[C@@H](C)CC)[C@@H](C)CC)C(=O)N[C@@H](C)C(=O)NCC(=O)NCC(=O)N1CCC[C@H]1C(=O)N[C@@H](CO)C(=O)N[C@@H](CO)C(=O)NCC(N)=O` [Example 272] (H-Y[Aib]EGTFTSDYSILLDKK([AEEA-AEEA-γGlu-C18 diacid])AQ[Aib]AFIEYLIAGGPSSG-NH2): the EC50 in assay [1] is 0.0464 nM; on human GLP-1R [2] (0.1% w/v hydrolyzed Casein, read-out: hGLP1R B-Arrestin2 Rel EC50), more than 12 µM; at human GLP-1R [2] (setting [6]), more than 12 µM; in assay [4] it was 0.0435 nM; on human GLP-1R [5], 0.651 nM. The Ki amounted to 1.22 nM at human GLP-1R [3], 550 nM at human Gcg receptor and 0.0353 nM on human GIP receptor.

`CC[C@H](C)[C@H](NC(=O)[C@H](CC(C)C)NC(=O)[C@H](Cc1ccc(O)cc1)NC(=O)[C@@H](CCC(=O)O)NC(=O)[C@@H](NC(=O)[C@H](Cc1ccccc1)NC(=O)[C@H](C)NC(=O)C(C)(C)NC(=O)[C@H](CCC(N)=O)NC(=O)[C@H](C)NC(=O)[C@H](CCCCNC(=O)COCCOCCNC(=O)COCCOCCNC(=O)CC[C@H](NC(=O)CCCCCCCCCCCCCCCCCCC(=O)O)C(=O)O)NC(=O)[C@H](CCCCN)NC(=O)[C@H](CC(=O)O)NC(=O)[C@H](CC(C)C)NC(=O)[C@](C)(CC(C)C)NC(=O)[C@@H](NC(=O)[C@H](CO)NC(=O)[C@H](Cc1ccc(O)cc1)NC(=O)[C@H](CC(=O)O)NC(=O)[C@H](CO)NC(=O)[C@@H](NC(=O)[C@H](Cc1ccccc1)NC(=O)[C@@H](NC(=O)CNC(=O)[C@H](CCC(=O)O)NC(=O)C(C)(C)NC(=O)[C@H](N)Cc1ccc(O)cc1)[C@@H](C)O)[C@@H](C)O)[C@@H](C)CC)[C@@H](C)CC)C(=O)N[C@@H](C)C(=O)NCC(=O)NCC(=O)N1CCC[C@H]1C(=O)N[C@@H](CO)C(=O)N[C@@H](CO)C(=O)NCC(=O)N[C@@H](C)C(=O)N1CCC[C@H]1C(=O)N1CCC[C@H]1C(=O)N1CCC[C@H]1C(=O)N[C@@H](CO)C(N)=O` [Example 352] (H-[dY][Aib]EGTFTSDYSI[αMeL]LDKK([AEEA-AEEA-γGlu-C20 diacid])AQ[Aib]AFI[dE]YLIAGGPSSGAPPPS-NH2): the concentration giving a half-maximal response (EC50) in assay [1] worked out at 0.127 nM; at human GLP-1R [2] (setting [6]) it was 0.00421 µM; in assay [4] it was 0.142 nM; at human GLP-1R [5] it was 0.552 nM. In addition, at human GLP-1R [2], the “hGLP1R B-Arrestin2 % Top” value is 17.4%. The Ki on human GLP-1R [3] was 3.03 nM; at human Gcg receptor it was more than 1030 nM; at human GIP receptor, 0.0726 nM.

Regarding `CC[C@H](C)[C@H](NC(=O)[C@H](CC(C)C)NC(=O)[C@H](Cc1ccc(O)cc1)NC(=O)[C@H](CCC(=O)O)NC(=O)[C@@H](NC(=O)[C@H](Cc1ccccc1)NC(=O)[C@H](CCC(=O)O)NC(=O)C(C)(C)NC(=O)[C@H](CCC(N)=O)NC(=O)[C@H](C)NC(=O)[C@H](CCCCNC(=O)COCCOCCNC(=O)COCCOCCNC(=O)CC[C@H](NC(=O)CCCCCCCCCCCCCCCCCCC(=O)O)C(=O)O)NC(=O)[C@H](CCCN)NC(=O)[C@H](CC(=O)O)NC(=O)[C@H](CC(C)C)NC(=O)[C@](C)(CC(C)C)NC(=O)[C@@H](NC(=O)[C@H](CO)NC(=O)[C@H](Cc1ccc(O)cc1)NC(=O)[C@H](CC(=O)O)NC(=O)[C@H](CO)NC(=O)[C@@H](NC(=O)[C@H](Cc1ccccc1)NC(=O)[C@@H](NC(=O)CNC(=O)[C@H](CCC(=O)O)NC(=O)C(C)(C)NC(=O)[C@H](N)Cc1ccc(O)cc1)[C@@H](C)O)[C@@H](C)O)[C@@H](C)CC)[C@@H](C)CC)C(=O)N[C@@H](C)C(=O)NCC(=O)NCC(=O)N1CCC[C@H]1C(=O)N[C@@H](CO)C(=O)N[C@@H](CO)C(=O)NCC(=O)N[C@@H](C)C(=O)N1CCC[C@H]1C(=O)N1CCC[C@H]1C(=O)N1CCC[C@H]1C(=O)N[C@@H](CO)C(N)=O` [Example 349] (H-[dY][Aib]EGTFTSDYSI[αMeL]LD[Orn]K([AEEA-AEEA-γGlu-C20 diacid])AQ[Aib]EFIEYLIAGGPSSGAPPPS-NH2), the EC50 was 0.117 nM in assay [1], 0.0151 µM on human GLP-1R [2] (setting [6]), 0.121 nM in assay [4] and 0.464 nM on human GLP-1R [5]. Moreover, the “hGLP1R B-Arrestin2 % Top” value at human GLP-1R [2] was 18.4%. Further, the Ki at human GLP-1R [3] is 1.72 nM; on human Gcg receptor, more than 1060 nM; at human GIP receptor, 0.08 nM.
